Results reported in patent US11150251B2, “Bi-functional arginine-glycine-aspartic acid (RGD) peptides and methods to promote angiogenesis” (Clemson University Research Foundation, priority 2016, dated 2021).
Entries after “also recorded” stand apart in the source; their conditions may differ. Ends that are not written are not given here. * marks the point of attachment. Meth = methacrylated, methacrylate group attached (2-isocyanatoethyl methacrylate used), C=C(C)C(=O)OCCNC(=O)*

Columns and labels:
Assay type in all cases: cell-based, human
[1] = system: hiPSC-CMs; assay: hiPSC-CM adhesion on RGD peptide-functionalized PEG hydrogel microarray; conditions: 15 mM peptide, 3 days culture, 18 replicates
Protocol: (§1) PEGDA and methacrylated peptides were mixed at one fixed peptide concentration (15 mM) to prepare microarrayed hydrogels with a constant peptide concentration. hiPSC-CMs (human induced pluripotent stem cell-derived cardiomyocytes from Cellular Dynamics International, Madison, Wis., USA) were seeded onto the microarray and cultured for 3 days to facilitate the formation of sarcomere structures. hiPSC-CMs were stained with DAPI to approximate cell number and phalloidin for F-actin to estimate cell spreading. Sarcomere structure was examined by using immunofluorescence microscopy.
hiPSC-derived cardiomyocytes (iCell Cardiomyocytes, Cellular Dynamics International, Madison, Wis., USA) were cultured according to the manufacturer's protocol. Briefly, hiPSC-derived cardiomyocytes were plated on 0.1% gelatin coated 6-well plates in iCell Cardiomyocytes Plating Medium (Cellular Dynamics International) at a density of about 3×10^5 to 4.0×10^5 cells/well and incubated at 37° C. in 5% CO2 for 4 days. Two days after plating, the plating medium was removed and replaced with 4 mL of iCell Cardiomyocytes Maintenance Medium (Cellular Dynamics International). After 4 days of monolayer pre-culture, cells were detached using trypLE Express (Gibco Life Technologies, Grand Island, N.Y.) and seeded along with culture media on the hydrogel microarrays. […] Sarcomere structures were visualized using sarcomere actinin and troponin-I staining as described above.

[2] = system: hADSCs; assay: hADSC adhesion on peptide-functionalized PEGDA-700 hydrogel microarray (peptide function validation, glycine linker length); conditions: for adhesion of hADSCs on peptide-functionalized PEGDA-700 hydrogels: 15 mM peptide; for saturation number of attached hADSCs relative to MethRGDSP and MethG2RGDSP: saturated (maximum) number of attached cells, peptide 0.5-15 mM, 12 hours
Protocol: PEGDA and methacrylated peptides were mixed at varied peptide concentrations (i.e., 0.5, 1, 3, 6, 9, 12 and 15 mM) to prepare microarrayed hydrogels with different peptide concentrations. hADSCs were seeded onto the array and cultured for 12 hours.
All experiments were conducted using passage 5 (P5) hADSCs.

[3] = system: hiPSC-CMs; assay: Sarcomere formation / alpha sarcomeric actinin expression of hiPSC-CMs on hydrogel microarray; conditions: 15 mM peptide, 3 days culture
Protocol: as §1
Briefly, hiPSC-CMs on the microarray were fixed with 4% PFA solution and blocked by 10% goat serum. […] Z-stacked Images collected from the microarray were analyzed by using the ImageJ (National Institutes of Health) for semi-quantitative analysis of the expression level of alpha sarcomeric actinin of hiPSC-CMs on the microarrays. The sarcomeric actinin expression level of hiPSC-CMs on each hydrogel spot was determined by the total fluorescence intensities of sarcomeric actinin staining divided by the total cell number on the hydrogel spot, which was then normalized to the blank PEG-700 hydrogel spots. […]

## DAVKQLQAAERGDA [derived from Laminin subunit α4]
[1]
  hiPSC-CM adhesion / affinity to hiPSC-CMs: substantial activities to support hiPSC-CM adhesion

## G4RDGSP: methacrylated scrambled sequence of G4RGDSP (Meth-GGGGRDGSP) [reference compound]
[2]
  adhesion of hADSCs on peptide-functionalized PEGDA-700 hydrogels: no cell adhesion

## MethG4RGDSP: methacrylated-RGDSP-peptide with 4 glycine linker (Meth-GGGGRGDSP)
[2]
  adhesion of hADSCs on peptide-functionalized PEGDA-700 hydrogels: effectively promote adhesion of hADSCs
  saturation number of attached hADSCs relative to MethRGDSP and MethG2RGDSP: about one-fold higher

## MethG6RGDSP: methacrylated-RGDSP-peptide with 6 glycine linker (Meth-GGGGGGRGDSP)
[2]
  saturation number of attached hADSCs relative to MethRGDSP and MethG2RGDSP: about one-fold higher

## PMQKMRGDVFSP [derived from Laminin subunit β4]
[1]
  hiPSC-CM adhesion / affinity to hiPSC-CMs: greatest ability to promote hiPSC-CM adhesion; also recorded: substantial activities to support hiPSC-CM adhesion; also recorded: highest affinity to hiPSC-CMs
[3]
  sarcomere formation / sarcomeric actinin expression of hiPSC-CMs: greatest ability to promote hiPSC-CM adhesion and sarcomere formation; also recorded: most developed sarcomere structures
[3]; listed as RGD (SEQ ID NO:36) peptide from laminin β4 subunit
  sarcomere formation / sarcomeric actinin expression of hiPSC-CMs: highest sarcomeric actinin expression

## PQVTRGDVFTMP [RGD peptide from vitronectin, included as a control, reference compound]
[1]
  hiPSC-CM adhesion / affinity to hiPSC-CMs: moderate cell adhesion

## SETQRGDVFVP [RGD peptide of the 12-peptide library, reference compound]
[1]
  hiPSC-CM adhesion / affinity to hiPSC-CMs: moderate cell adhesion
